# Laboratory results as given in article PMC3094704, “S-Petasin, the Main Sesquiterpene of Petasites formosanus, Inhibits Phosphodiesterase Activity and Suppresses Ovalbumin-Induced Airway Hyperresponsiveness” (Evidence-based Complementary and Alternative Medicine : eCAM, 2011).
# pIC50: −log10 of the molar value.
# Key:
# [1] = system: isolated sensitized guinea pig trachea; test: OVA-induced tracheal contractions and baseline tension in vitro
# Protocol: Male Hartley guinea pigs (500–600 g) were sensitized by intramuscular injections of 0.7 mL of 5% (w/v) OVA in saline on Days 1, 4 and 43, and in adjuvant on Days 25 and 39 into each thigh, according to a method described by Underwood et al. and modified by us. Three days after the last injection, sensitized guinea pigs were sacrificed by cervical dislocation, and their tracheas removed. Each trachea was cut into six segments. Each segment consisted of three cartilage rings. All segments were cut open opposite the trachealis. […] Tissues were suspended in normal Krebs solution under an initial tension of 1.5 g and allowed to equilibrate for at least 1 h with washing at 15-min intervals. After the tissues were precontracted with KCl (60 mM) and washed with normal Krebs solution, OVA (0.1–100 μg/mL) was cumulatively added, and contractions were allowed to reach a steady state at each concentration. […] Therefore, the log concentration-response curves of OVA were constructed in the absence and presence of S-petasin. The tension of the precontraction induced by KCl was set as 100%.
# [2] = system: cAMP-phosphodiesterase (PDE); design: method as in PMID 11345692; details: cited from earlier work
# guinea pig trachea = details: precontracted by histamine, carbachol (CCh), KCl or leukotriene (LT) D4; read-out: IC50 in relaxing guinea pig trachea; cited from earlier work
# [3] = system: OVA-sensitized and challenged BALB/c mice; test: Cytokines in BALF (CBA flow cytometry); type: in vivo, mouse
# Protocol: Ten female BABL/c mice in each group were sensitized by an intraperitoneal (i.p.) injection of 20 μg of OVA emulsified in 2.25 mg aluminum hydroxide gel in a total volume of 100 μL on days 0 and 14. The mice were challenged via the airway by 1% OVA in saline for 30 min on Days 28, 29 and 30 by ultrasonic nebulization. Six weeks after the last of three primary OVA challenges, the mice were exposed to 1% OVA for 30 min by nebulization as a secondary challenge. AHR was assessed on Day 74 (48 h after 1% OVA provocation) in each group. […] For comparison, sham-treated mice were sensitized but challenged with saline instead of 1% OVA (non-challenged). The vehicle, a mixture of alcohol : DMSO : 30% HPβCD : saline (0.5 : 0.5 : 1 : 8 , v/v), or S-petasin was injected at a volume of 0.01 mL/g of body weight. AHR was measured in unrestrained animals by barometric plethysmography using a whole-body plethysmograph (WBP) and analyzed using software of Life Science Suite P3 Analysis Modules (Gould, LDS Test and Measurement LLC, Valley View, OH, USA). The mice were placed into the main chamber of the WBP, and the baseline enhanced pause (P enh) value was determined. Then the mice were nebulized first with phosphate-buffered saline (PBS), and subsequently with increasing doses (6.25–50 mg/mL) of MCh for 3 min for each nebulization, followed by readings of breathing parameters for 3 min after each nebulization with determination of P enh values. Twenty-four hours after the P enh determination, these mice were anesthetized with pentobarbital (50 mg/kg, i.p.), and lavaged via a tracheal tube with PBS (1 × 1.0 mL, 37°C). After lavage, blood was collected from the jugular vein and allowed to sit so that it would coagulate. The collected bronchoalveolar lavage fluid (BALF) and coagulated blood were, respectively, centrifuged at 630 g for 7 min and at 3700 g for 10 min at 4°C, respectively. After centrifugation, the supernatants of BALF and serum were stored at −20°C until the determinations of cytokines, including interleukin (IL)-2, IL-4, IL-5, tumor necrosis factor (TNF)-α and interferon (IFN)-γ by flow cytometric methods using mouse Th1/Th2 cytokine CBA kits, of total immunoglobulin E (IgE), and of total IgG2a using enzyme-linked immunosorbent assay (ELISA) kits (Pharmingen, San Diego, CA, USA) according to the respective recommendations of the manufacturer. OVA-specific IgE was measured as described previously with some modifications. Wells were coated with 100 μL of OVA (20 μg/mL) instead of the capture antibody. Levels are expressed in arbitrary units, where one arbitrary unit equals the optical density of the sample divided by the optical density of unchallenged mouse serum or BALF (standard). The pellet from BALF was re-suspended in ACK lysing buffer (1.658 g NH4Cl, 0.2 g KHCO3 and 1.44 mg EDTA in 200 mL of water) to lyse the residual erythrocytes in each sample. The number of inflammatory cells was counted using a hemocytometer (Hausser Scientific, Horsham, PA, USA). Cytospun slides were stained and differentiated in a blinded fashion by counting at least 100 cells under light microscopy.
structure (smiles),measurement,setting,value
C=C(C)[C@@H]1C[C@@]2(C)C(=CC1=O)CC[C@@H](OC(=O)/C=C\SC)[C@@H]2C [S-Petasin],OVA (100 μg/mL)-induced contractions,"[1]; 30–100 μM, 15 min preincubation",did not significantly inhibit
same,Baseline tension,[1]; 30–300 μM,concentration-dependently and significantly relaxed
same,Inhibition of cAMP-phosphodiesterase (PDE) activity,[2],inhibited
same,pIC50,guinea pig trachea,> 5.00
same,Increase in IL-4 level in BALF,"[3]; 30 μmol/kg s.c., exception at 10 μmol/kg",significantly suppressed
same,Increase in IFN-γ level in BALF,[3]; 10–30 μmol/kg s.c.,significantly suppressed
same,Increase in IL-2 level in BALF,[3]; 10–30 μmol/kg s.c.,significantly suppressed
same,Increase in IL-5 level in BALF,[3]; 10–30 μmol/kg s.c.,significantly suppressed
same,Increase in TNF-α level in BALF,[3]; 10–30 μmol/kg s.c.,significantly suppressed
